According to patent publication US20210069375A1, “Extracellular Matrices, Uses thereof, and Method for Making Extracellular Matrices” (Gemstone Biotherapeutics LLC, priority 2017, published 2021):

Test: reactivity of the drug under the curing conditions of the EMR
Assay type: physicochemical
Conditions: mixed with dextramate, PEGDA and Irgacure, cured for 10 minutes
Method: Dextramate (24.2 mL of a 23.1 w/w % solution), PEGDA (16.3 mL of a 8.6 w/w % solution), Irgacure (14 mL of a 0.5 w/w % solution), and valsartan (2.82 mL or 1.41 mL of a 24.8 w/w % solution or 2.82 mL of a 1:10 dilution of a 24.8 w/w % solution) are mixed together. The mixture is cured for 10 minutes. After curing, 100 mL of dH2O is added to the cured product to create a swelled gel.

**Q.** With CCCCC(=O)N(Cc1ccc(-c2ccccc2-c2nnn[nH]2)cc1)[C@H](C(=O)O)C(C)C [valsartan] as the molecule, how does the “reactivity under the curing conditions” value read?
**A.** does not exhibit reactivity
